According to PubChem BioAssay AID248 (DTP/NCI, 2004):
Values joined by “and” are separate entries in the source; they are usually repeats but may differ in a detail not shown here. Equal values may be shown once. Inconclusive results and toxic doses are left out.

System: L1210 leukemia ip in BDF1 mice, survival T/C
Assay: NCI In Vivo Anticancer Drug Screen. Data for tumor model L1210 Leukemia (intraperitoneal) in B6D2F1 (BDF1) mice
Conditions: endpoint: mean survival time, higher = longer survival
How it was run: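 Read-out is survival time, reported as the treated-group measurement over the vehicle-control measurement.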

[1] = dose: 100.0 mg/kg/injection, schedule: Q04DX003 (ip), vehicle: saline
[2] = dose: 200.0 mg/kg/injection, schedule: Q04DX003 (ip), vehicle: saline
[3] = dose: 400.0 mg/kg/injection, schedule: Q04DX003 (ip), vehicle: saline
[4] = dose: 100.0 mg/kg/injection, schedule: Q01DX001 (ip), vehicle: saline
[5] = dose: 200.0 mg/kg/injection, schedule: Q01DX001 (ip), vehicle: saline
[6] = dose: 400.0 mg/kg/injection, schedule: Q01DX001 (ip), vehicle: saline
[7] = dose: 100.0 mg/kg/injection, schedule: Q04DX003 (ip), vehicle: saline with Tween-80
[8] = dose: 200.0 mg/kg/injection, schedule: Q04DX003 (ip), vehicle: saline with Tween-80
[9] = dose: 400.0 mg/kg/injection, schedule: Q04DX003 (ip), vehicle: saline with Tween-80
[10] = dose: 100.0 mg/kg/injection, schedule: Q01DX009 (ip), vehicle: saline with Tween-80
[11] = dose: 200.0 mg/kg/injection, schedule: Q01DX009 (ip), vehicle: saline with Tween-80
[12] = dose: 400.0 mg/kg/injection, schedule: Q01DX009 (ip), vehicle: saline with Tween-80
[13] = dose: 100.0 mg/kg/injection, schedule: Q01DX009 (ip), vehicle: Klucel (hydroxypropylcellulose) (HPC)
[14] = dose: 200.0 mg/kg/injection, schedule: Q01DX009 (ip), vehicle: Klucel (hydroxypropylcellulose) (HPC)
[15] = dose: 100.0 mg/kg/injection, schedule: Q01DX001 (ip), vehicle: Klucel (hydroxypropylcellulose) (HPC)
[16] = dose: 200.0 mg/kg/injection, schedule: Q01DX001 (ip), vehicle: Klucel (hydroxypropylcellulose) (HPC)
[17] = dose: 100.0 mg/kg/injection, schedule: Q04DX002 (ip), vehicle: Klucel (hydroxypropylcellulose) (HPC)
[18] = dose: 200.0 mg/kg/injection, schedule: Q04DX002 (ip), vehicle: Klucel (hydroxypropylcellulose) (HPC)
[19] = dose: 400.0 mg/kg/injection, schedule: Q04DX002 (ip), vehicle: Klucel (hydroxypropylcellulose) (HPC)
[20] = dose: 25.0 mg/kg/injection, schedule: Q01DX009 (ip), vehicle: saline
[21] = dose: 400.0 mg/kg/injection, schedule: Q01DX009 (ip), vehicle: Klucel (hydroxypropylcellulose) (HPC)

SMILES: COC(=O)C(CCCN=C(N)N)NC(=O)OCc1ccccc1 (centres undefined)
- T/C [1]: 105 % of control
- T/C [2]: 110 % of control
- T/C [3]: 108 % of control

SMILES: O=C(Nc1ccc(Cl)c(Cl)c1)NC(CO)(CO)CO
- T/C [4]: 100 % of control
- T/C [5]: 94 % of control
- T/C [6]: 94 % of control

SMILES: Nc1ccc(CCNS(=O)(=O)c2ccc(S(=O)(=O)F)cc2)cc1
- T/C [4]: 103 % of control
- T/C [5]: 97 % of control
- T/C [6]: 107 % of control

SMILES: CSCC(C)O (centres undefined)
- T/C [1]: 109 % of control
- T/C [2]: 115 % of control
- T/C [3]: 109 % of control

SMILES: CC(=O)/C=C(\C)OC1CCCCC1
- T/C [7]: 98 % of control
- T/C [8]: 95 % of control
- T/C [9]: 91 % of control

SMILES: COC1C=CC2OC(c3ccccc3)OCC2O1 (centres undefined)
- T/C (dose: 100.0 mg/kg/injection, schedule: Q01DX001 (ip), vehicle: other): 101 % of control
- T/C (dose: 200.0 mg/kg/injection, schedule: Q01DX001 (ip), vehicle: other): 101 % of control
- T/C (dose: 400.0 mg/kg/injection, schedule: Q01DX001 (ip), vehicle: other): 109 % of control

SMILES: CC(=O)Nc1cccc2c1C(=O)OC2=O
- T/C [10]: 105 % of control
- T/C [7]: 102 % of control
- T/C [11]: 89 % of control
- T/C [8]: 99 % of control
- T/C [12]: 93 % of control
- T/C [9]: 94 % of control

SMILES: CCN(C(=S)Nc1cccc(OC)c1)c1ccccc1
- T/C [13]: 90 % of control
- T/C [14]: 94 % of control

SMILES: Cc1c(C)c2nc3ccccc3nc2c2ccccc12
- T/C (dose: 50.0 mg/kg/injection, schedule: Q01DX001 (ip), vehicle: Klucel (hydroxypropylcellulose) (HPC)): 98 % of control
- T/C [15]: 95 % of control
- T/C [16]: 95 % of control

SMILES: CN(C)c1c(Cl)cc([N+](=O)[O-])cc1Cl
- T/C [15]: 97 % of control
- T/C [16]: 95 % of control
- T/C (dose: 400.0 mg/kg/injection, schedule: Q01DX001 (ip), vehicle: Klucel (hydroxypropylcellulose) (HPC)): 94 % of control

SMILES: CC(=O)OC1CCCCC1NC(=O)NCCCl (centres undefined)
- T/C (dose: 12.5 mg/kg/injection, schedule: Q04DX002 (ip), vehicle: Klucel (hydroxypropylcellulose) (HPC)): 87 % of control
- T/C (dose: 25.0 mg/kg/injection, schedule: Q04DX002 (ip), vehicle: Klucel (hydroxypropylcellulose) (HPC)): 93 % of control
- T/C (dose: 50.0 mg/kg/injection, schedule: Q04DX002 (ip), vehicle: Klucel (hydroxypropylcellulose) (HPC)): 101 % of control
- T/C [17]: 91 % of control
- T/C [18]: 103 % of control
- T/C [19]: 106 % of control and 95 % of control

SMILES: O=c1c2c(=O)c3ccccc3c(=O)c=2c(=O)c2ccccc12
- T/C [17]: 93 % of control
- T/C [18]: 89 % of control
- T/C [19]: 89 % of control

SMILES: CCCC(C)(C)C(=O)Nc1cccc(OC(=O)NC(C)(C)C)c1
- T/C [10]: 88 % of control
- T/C [11]: 86 % of control
- T/C [12]: 89 % of control

SMILES: CC(CCOS(C)(=O)=O)OS(C)(=O)=O (centres undefined)
- T/C [7]: 112 % of control
- T/C [8]: 107 % of control
- T/C [9]: 88 % of control

SMILES: CNC/C=C/CNC
- T/C [20]: 97 % of control
- T/C (dose: 25.0 mg/kg/injection, schedule: Q04DX003 (ip), vehicle: saline): 102 % of control
- T/C (dose: 50.0 mg/kg/injection, schedule: Q01DX009 (ip), vehicle: saline): 90 % of control
- T/C (dose: 50.0 mg/kg/injection, schedule: Q04DX003 (ip), vehicle: saline): 93 % of control
- T/C (dose: 100.0 mg/kg/injection, schedule: Q01DX009 (ip), vehicle: saline): 98 % of control
- T/C [1]: 98 % of control and 99 % of control

SMILES: COC(=O)c1ccc(F)cc1
- T/C (dose: 50.0 mg/kg/injection, schedule: Q01DX001 (ip), vehicle: carboxymethylcellulose (CMC)): 92 % of control
- T/C (dose: 100.0 mg/kg/injection, schedule: Q01DX001 (ip), vehicle: carboxymethylcellulose (CMC)): 97 % of control
- T/C (dose: 200.0 mg/kg/injection, schedule: Q01DX001 (ip), vehicle: carboxymethylcellulose (CMC)): 97 % of control
- T/C (dose: 400.0 mg/kg/injection, schedule: Q01DX001 (ip), vehicle: carboxymethylcellulose (CMC)): 95 % of control

SMILES: O=C1C(NCCO)=C(N2CC2)C(=O)C(NCCO)=C1N1CC1
- T/C (dose: 0.04 mg/kg/injection, schedule: Q01DX009 (ip), vehicle: saline): 115 % of control
- T/C (dose: 0.09 mg/kg/injection, schedule: Q01DX009 (ip), vehicle: saline): 111 % of control
- T/C (dose: 0.09 mg/kg/injection, schedule: Q04DX003 (ip), vehicle: saline): 121 % of control
- T/C (dose: 0.18 mg/kg/injection, schedule: Q01DX009 (ip), vehicle: saline): 159 % of control and 164 % of control and 195 % of control
- T/C (dose: 0.18 mg/kg/injection, schedule: Q04DX003 (ip), vehicle: saline): 120 % of control
- T/C (dose: 0.19 mg/kg/injection, schedule: Q01DX009 (ip), vehicle: saline): 153 % of control
- T/C (dose: 0.37 mg/kg/injection, schedule: Q01DX001 (ip), vehicle: saline): 103 % of control
- T/C (dose: 0.37 mg/kg/injection, schedule: Q01DX009 (ip), vehicle: saline): 157 % of control and 164 % of control and 212 % of control
- T/C (dose: 0.37 mg/kg/injection, schedule: Q04DX003 (ip), vehicle: saline): 155 % of control and 157 % of control
- T/C (dose: 0.38 mg/kg/injection, schedule: Q01DX009 (ip), vehicle: saline): 184 % of control
- T/C (dose: 0.75 mg/kg/injection, schedule: Q04DX003 (ip), vehicle: saline): 170 % of control and 231 % of control
- T/C (dose: 1.5 mg/kg/injection, schedule: Q01DX001 (ip), vehicle: saline): 275 % of control
- T/C (dose: 1.5 mg/kg/injection, schedule: Q04DX003 (ip), vehicle: saline): 160 % of control and 164 % of control and 186 % of control
- T/C (dose: 1.56 mg/kg/injection, schedule: Q04DX003 (ip), vehicle: saline): 103 % of control
- T/C (dose: 3.0 mg/kg/injection, schedule: Q04DX003 (ip), vehicle: saline): 104 % of control and 115 % of control

SMILES: CC(=O)OC1CC2CCC1(S(=O)(=O)O)C2(C)C (centres undefined)
- T/C [4]: 107 % of control
- T/C [1]: 103 % of control
- T/C [5]: 108 % of control
- T/C [2]: 103 % of control
- T/C [6]: 107 % of control
- T/C [3]: 114 % of control

SMILES: C[C@]1(O)CC[C@H]2[C@@H]3CCC4=CC(=O)CCC4=C3C=C[C@@]21C
- T/C [13]: 96 % of control
- T/C (dose: 100.0 mg/kg/injection, schedule: Q04DX003 (sc), vehicle: Klucel (hydroxypropylcellulose) (HPC)): 98 % of control
- T/C [14]: 96 % of control
- T/C (dose: 200.0 mg/kg/injection, schedule: Q04DX003 (sc), vehicle: Klucel (hydroxypropylcellulose) (HPC)): 95 % of control
- T/C [21]: 110 % of control
- T/C (dose: 400.0 mg/kg/injection, schedule: Q04DX003 (sc), vehicle: Klucel (hydroxypropylcellulose) (HPC)): 101 % of control

SMILES: Cc1ccc([N+](=O)[O-])cc1NC(=O)N(CC(O)c1ccccc1)C1CCCCC1 (centres undefined)
- T/C [17]: 90 % of control
- T/C [18]: 97 % of control
- T/C [19]: 95 % of control

SMILES: CCCCCCCCCCCCCCCCCC[N+](C)(C)Cc1cc(=O)c(O)co1
- T/C (dose: 6.25 mg/kg/injection, schedule: Q01DX009 (ip), vehicle: saline): 89 % of control
- T/C (dose: 12.5 mg/kg/injection, schedule: Q01DX009 (ip), vehicle: saline): 106 % of control
- T/C [20]: 99 % of control

SMILES: NC(N)=NC(N)=Nc1ccccc1-c1ccccc1
- T/C [13]: 111 % of control
- T/C [14]: 103 % of control
- T/C [21]: 86 % of control

SMILES: COc1ccc(OC)c(NC(=O)NCCCl)c1
- T/C (dose: 100.0 mg/kg/injection, schedule: Q04DX003 (ip), vehicle: Klucel (hydroxypropylcellulose) (HPC)): 101 % of control
- T/C (dose: 200.0 mg/kg/injection, schedule: Q04DX003 (ip), vehicle: Klucel (hydroxypropylcellulose) (HPC)): 98 % of control
- T/C (dose: 400.0 mg/kg/injection, schedule: Q04DX003 (ip), vehicle: Klucel (hydroxypropylcellulose) (HPC)): 87 % of control

SMILES: O=C(O)CCCCCCC(=O)c1ccccc1
- T/C (dose: 100.0 mg/kg/injection, schedule: Q01DX001 (ip), vehicle: saline with Tween-80): 98 % of control
- T/C (dose: 200.0 mg/kg/injection, schedule: Q01DX001 (ip), vehicle: saline with Tween-80): 95 % of control
- T/C (dose: 400.0 mg/kg/injection, schedule: Q01DX001 (ip), vehicle: saline with Tween-80): 98 % of control
